Data published in US10738080B2, “Inhibitors of beta integrin-G protein alpha subunit binding interactions” (priority 2010, dated 2020).
Where two headings read alike, the source gives them in different places. No end group written: not given here. *: point of attachment. Myristoyl = CCCCCCCCCCCCCC(=O)*

Legend:
human platelets [1] = settings: resting platelets, 250 μM peptide
Method: Platelet Adhesion Assays were carried out as follows: As described before(6), microtiter wells were coated with 30 μg/ml fibrinogen in PBS overnight. Washed human platelets in modified Tyrode's buffer in the absence or presence of 1 mM MnCl2 were incubated in the microtiter wells for one hour at 37° C. in a CO2 incubator. After 3 washes, 50 μl of reaction buffer (0.3% p-nitrophenyl phosphate (Sigma) in 1% Triton-X-100, 50 mM sodium acetate, pH 5.0) was added into each microtiter well and incubated at 37° C. for one hour. The reaction was stopped by adding 50 μl of 1 M NaOH. Results were determined by reading OD at 405 nm wave length. The percentage of platelet adhesion was estimated from the ratio of the readings of adherent platelets to that of total platelets. Statistic significance was determined using t test (n=3).

[2] = molecular target: talin association with β3 (Homo sapiens, UniProt Q9Y490); settings: 500 μM peptide, 0.025 U/ml thrombin at 22° C.
Sequence of talin association with β3 (Q9Y490 whole entry): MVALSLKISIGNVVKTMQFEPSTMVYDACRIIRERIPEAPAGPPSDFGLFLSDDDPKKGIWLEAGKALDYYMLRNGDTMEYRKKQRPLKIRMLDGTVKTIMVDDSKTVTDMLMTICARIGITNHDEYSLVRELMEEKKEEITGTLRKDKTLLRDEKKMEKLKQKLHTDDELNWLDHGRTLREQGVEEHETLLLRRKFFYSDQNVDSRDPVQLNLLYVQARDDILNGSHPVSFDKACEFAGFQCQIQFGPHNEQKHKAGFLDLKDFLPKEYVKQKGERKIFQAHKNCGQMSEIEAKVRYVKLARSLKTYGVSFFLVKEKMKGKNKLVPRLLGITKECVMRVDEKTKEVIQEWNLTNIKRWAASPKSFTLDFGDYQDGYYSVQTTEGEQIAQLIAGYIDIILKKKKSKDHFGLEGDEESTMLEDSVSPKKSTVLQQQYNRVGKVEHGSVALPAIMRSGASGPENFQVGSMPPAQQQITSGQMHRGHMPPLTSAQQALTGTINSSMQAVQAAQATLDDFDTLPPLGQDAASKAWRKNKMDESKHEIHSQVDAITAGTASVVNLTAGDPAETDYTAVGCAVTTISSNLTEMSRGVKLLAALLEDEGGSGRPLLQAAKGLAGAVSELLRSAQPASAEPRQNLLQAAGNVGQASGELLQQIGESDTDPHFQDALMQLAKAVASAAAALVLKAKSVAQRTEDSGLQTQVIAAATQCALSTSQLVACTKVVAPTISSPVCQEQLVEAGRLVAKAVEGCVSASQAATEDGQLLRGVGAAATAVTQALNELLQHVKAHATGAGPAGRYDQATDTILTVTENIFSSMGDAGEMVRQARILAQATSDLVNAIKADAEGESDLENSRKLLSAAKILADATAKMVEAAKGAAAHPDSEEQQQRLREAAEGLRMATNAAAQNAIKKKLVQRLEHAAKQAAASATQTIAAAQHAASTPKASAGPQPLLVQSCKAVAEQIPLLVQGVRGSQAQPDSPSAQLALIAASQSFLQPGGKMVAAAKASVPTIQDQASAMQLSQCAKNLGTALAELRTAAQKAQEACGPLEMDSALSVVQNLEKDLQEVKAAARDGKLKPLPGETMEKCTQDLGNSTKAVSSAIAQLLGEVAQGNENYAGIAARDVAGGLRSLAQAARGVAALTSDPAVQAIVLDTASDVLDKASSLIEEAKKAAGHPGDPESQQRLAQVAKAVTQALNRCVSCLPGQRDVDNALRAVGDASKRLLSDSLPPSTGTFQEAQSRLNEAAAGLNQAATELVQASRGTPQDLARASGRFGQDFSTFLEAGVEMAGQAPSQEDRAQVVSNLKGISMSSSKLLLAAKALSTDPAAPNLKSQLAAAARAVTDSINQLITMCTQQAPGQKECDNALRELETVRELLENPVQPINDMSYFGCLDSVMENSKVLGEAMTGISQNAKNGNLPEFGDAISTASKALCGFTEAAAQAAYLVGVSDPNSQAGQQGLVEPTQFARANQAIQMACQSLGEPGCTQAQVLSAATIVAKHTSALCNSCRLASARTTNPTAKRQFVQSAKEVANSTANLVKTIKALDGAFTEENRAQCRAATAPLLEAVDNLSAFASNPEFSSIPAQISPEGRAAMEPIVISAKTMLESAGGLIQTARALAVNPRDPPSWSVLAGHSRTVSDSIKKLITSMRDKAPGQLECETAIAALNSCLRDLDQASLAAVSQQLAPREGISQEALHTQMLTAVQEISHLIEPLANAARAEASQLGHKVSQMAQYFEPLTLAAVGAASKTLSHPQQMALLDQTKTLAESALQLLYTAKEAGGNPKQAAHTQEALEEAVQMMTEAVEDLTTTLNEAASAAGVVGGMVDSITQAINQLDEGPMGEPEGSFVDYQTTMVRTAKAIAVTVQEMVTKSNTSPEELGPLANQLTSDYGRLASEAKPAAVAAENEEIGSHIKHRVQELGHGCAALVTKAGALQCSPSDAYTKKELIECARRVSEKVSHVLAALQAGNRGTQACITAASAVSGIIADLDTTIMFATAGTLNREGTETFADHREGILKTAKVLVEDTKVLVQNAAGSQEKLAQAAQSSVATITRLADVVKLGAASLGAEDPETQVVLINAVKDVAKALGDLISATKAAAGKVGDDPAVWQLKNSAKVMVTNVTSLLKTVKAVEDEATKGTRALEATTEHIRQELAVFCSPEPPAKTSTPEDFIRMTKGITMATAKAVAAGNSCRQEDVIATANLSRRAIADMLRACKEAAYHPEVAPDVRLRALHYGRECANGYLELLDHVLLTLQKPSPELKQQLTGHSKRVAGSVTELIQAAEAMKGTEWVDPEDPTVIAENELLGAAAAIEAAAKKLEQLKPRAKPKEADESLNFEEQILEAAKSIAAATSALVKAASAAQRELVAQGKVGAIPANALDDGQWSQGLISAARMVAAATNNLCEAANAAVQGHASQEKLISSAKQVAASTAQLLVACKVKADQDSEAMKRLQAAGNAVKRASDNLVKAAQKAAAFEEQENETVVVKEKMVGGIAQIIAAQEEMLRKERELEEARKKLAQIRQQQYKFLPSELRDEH
Method: Cell lysates were incubated with rabbit anti-Gα13 IgG (1.5 μg/ml), anti-integrin β3 rabbit serum (5 μl/ml) or an equal amount of rabbit IgG or pre-immune serum at 4° C. overnight, and subsequently with protein A-conjugated Sepharose beads for 1 hour. For the integrin β3 clustering experiment, human platelets (3×10^8) were stimulated with 0.025 U/ml α-thrombin for 2 minutes at room temperature (to avoid platelet aggregation) with or without 2 mM RGDS, then incubated with 5 μl anti-integrin β3 8053 rabbit serum at room temperature for 1 hour, and 5 μg goat anti-rabbit secondary antibody for another 1 hour. Platelets were then solubilized in modified RIPA Buffer. For the un-clustering control and pre-immune serum control, cells were solubilized in modified RIPA Buffer first, than incubated with 5 μl 8053 serum or pre-immune serum. After 3-6 washes with lysis buffer, immunoprecipitates were analyzed by SDS-polyacrylamide gel electrophoresis and Western blots using antibodies against β3, talin, or Gα13. In some experiments, 500 μM control or inhibitor peptides, mP5, mP7 and mP13 were incubated with platelet lysates prior to immunoprecipitation, or 2 mM RGDS was added into washed human platelets before stimulation by 0.025 U/ml α-thrombin. GST bead pull down analysis was previously described^8. […] Bead-bound proteins were analyzed by immunoblotting.

[3] = test system: human platelet-rich plasma; settings: 250 μM peptide
Method: Studies using human platelets were approved by the Institutional Review Board of University of Illinois at Chicago. […] Clot retraction was analyzed with the previously described method (S6, S7). Briefly, mouse platelets (6×10^8/ml) were resuspended in platelet-depleted human plasma, and 0.4 U/ml α-thrombin was added to initiate coagulation. The clots were photographed at various time points. Sizes of retracted clots on photographs were quantified using NIH Image J software. Statistical significance was determined using t-test.
Clot Retraction Assays were carried out as follows: Similar as described before(2, 3), freshly prepared human whole blood was citrated with 1/10 volume of 3.8% sodium citrate. After centrifugation at 1300 rpm for 22 min with break, platelet rich plasma (PRP) was collected. Pre-incubated of PRP with 0.05% DMSO (vehicle), 250 μM mP5 peptide, 250 μM mP13 peptide, or their corresponding scrambled control peptides mP5Scr or mP13Scr for 5 minutes at room temperature. After that, 0.5 U/ml thrombin was added into PRP and mixed gently. The clots were formed and allowed to retract at 37° C. incubator with CO2 and were photographed at various times. The two-dimensional sizes of retracted clots on photographs were quantified using Image J software and were expressed as clot size. Statistical significance was determined using a t test (n=3).

human platelets [4] = settings: PAR4AP 50 μM, 250 μM peptide (150 μM also in FIG. 17G)
Method: Washed human or mouse platelets resuspended in modified Tyrode's buffer (3×10^8/ml, 50 μl) were incubated with 10 μg/ml Oregon Green^488-conjugated fibrinogen (Molecular Probes) and 50 μM PAR4AP for 30 minutes at 22° C. as previously described^26. The reaction was diluted with 0.5 ml of PBS and analyzed by flow cytometry using FACS Caliber (BD Biosciences, San Jose, Calif.).

human platelets [5] = test system: human platelets
Method: (§1) Platelet aggregation assays were carried out as follows: Platelet aggregation and secretion was measured in a turbidometric platelet aggregometer (Chronolog) at 37° C. with stirring (1000 rpm). Washed platelets (3×10^8/ml) in modified Tyrode's buffer were stimulated with thrombin (Enzyme Research Laboratories). For talin knockdown platelet aggregation assay stimulated with manganese and ADP, manganese and ADP was mixed prior to experiment to achieve final concentration of 1 mM manganese and 5 μM ADP in reaction tube. Aggregation traces shown are representative of at least three independent experiments.
Platelet aggregation assays were performed with myristoylated peptide mP5, myristoylated peptide of SEQ: ID NO: 87, or their respective scarmbled control peptides, as essentially described herein. Briefly, washed human platelets were preincubated with 25, 50, 100, 250, or 500 μM peptide solubilized in DMSO.

platelets = settings: ATP secretion
Method: as §1

mouse platelets = settings: 30 μM peptide
Method: as §1

Myristoyl-KFEEERARAKWDT [mP13]
platelet adhesion to immobilized fibrinogen (human platelets [1]): inhibited
talin association with β3 [2]: inhibited
clot retraction [3]: inhibited

Myr-EEERA [mP5]
platelet adhesion to immobilized fibrinogen (human platelets [1]): nor does it affect
agonist (PAR4AP)-induced fibrinogen binding to platelets (inside-out signaling) (human platelets [4]): no effect
agonist (PAR4AP)-induced fibrinogen binding to platelets (inside-out signaling) (human platelets [4]; listed as Myr-P5): without affecting
talin association with β3 [2]: not
platelet aggregation induced by thrombin (human platelets [5]): inhibited
second wave of platelet aggregation (human platelets [5]): inhibited
platelets aggregation induced by thrombin (human platelets [5]; 30 μM peptide, human platelets): inhibited
platelets aggregation induced by thrombin (human platelets [5]; 200 μM peptide): inhibited
platelet granule secretion (platelets): inhibited
platelets aggregation induced by thrombin (mouse platelets): inhibited
clot retraction [3]: accelerated

Myristoyl-LLARRPTKGIHEY [mSRI]
clot retraction [3]: accelerated
